Test results published in US20240261375A1, “PHARMACEUTICAL COMPOSITION FOR TREATING OR PREVENTING DISORDER ASSOCIATED WITH ADMINISTRATION OF ANTICANCER AGENT” (LTT BIO-PHARMA CO., LTD., priority 2021, published 2024).
Where two headings read alike, the source gives them in different places.

How the values were obtained:
RAW cells [1] = assay: Active oxygen production in RAW cells (MitoSOX Red); type: cell-based
Experimental: RAW cells were seeded on a 96-well plate for fluorescence at 20 000 cells/well (D-MEM high glucose medium containing 10% inactivated FBS). […] Sixteen hours later, cells were treated with an HBSS solution containing dissolved MitoSOX™ Red Mitochondrial Superoxide Indicator (Invitrogen™) for 30 minutes, and the medium was replaced with D-MEM high glucose medium containing 1% inactivated FBS. Active oxygen production in mitochondria was determined by measuring fluorescence (Ex 510 nm, Em 580 nm) by using a plate reader (Infinite M Plex, Tecan). Cells for four wells were analyzed for each group.

[2] = test system: Large intestine cancer cells (colo320, HCT116); assay: Proliferation of large intestine cancer cells (CCK-8); type: cell-based; conditions: OXA alone, 3-fold dilutions from 100 μM, 72 hours; FIG. 6
Experimental: Large intestine cancer cells (colo320, HCT116) were added to RPM1640 medium (Thermo Fisher Scientific Inc.) containing 10% fetal bovine serum and 100 units/mL penicillin-streptomycin (Gibco BRL) and cultured at 37° C. in a 5% CO2 incubator.
Cells were seeded on a 96-well plate at 10 000 cells/well and treated with a test solution 24 hours later. A test solution containing OXA alone was diluted 3-fold from 100 μM (10 levels) and added to a 96-well plate. A test solution containing OXA+PC-SOD was obtained by adding the same concentrations of OXA to PC-SOD (50 μg/mL) (n=3 per group). After cells were cultured for 72 hours, a CCK-8 solution was added in a volume of 1/10 of the solution in each well, and the mixture was measured at 490 nm of absorbance (Tecan, Tecan Japan). Data were expressed with mean±standard error (SEM). It should be noted that experiment conditions were allowed to be changed as required.

RAW cells [3] = assay: Toxicity of anticancer agents against RAW cells (CellTiter-Glo viable cell count); type: cell-based
Experimental: RAW cells were seeded on a 96-well plate at 20 000 cells/well (D-MEM high glucose medium containing 10% inactivated FBS). […] The number of viable cells was counted 24 hours later by measuring chemical luminescence by using CellTiter-Glo™ 2.0 Cell Viability Assay (Promega) and a plate reader (Tecan, Infinite M Plex). Cells for four wells were analyzed for each group.

[4] = test system: liver of OXA-treated rats; assay: Pathological assessment of liver disorder caused by oxaliplatin (HE staining); type: in vivo, rat; conditions: PC-SOD 1 mg/kg, mangafodipir dose not given, FIG. 5
Source text: A liver tissue was collected and fixed with 10% neutral buffered formalin to prepare a paraffin block by using Histos 5 (Milestone) and an embedding center (EG1160, Leica). The sample block was thinly sliced at a thickness of 3 μm by using a microtome (MR2245, Leica) to prepare a slide. The prepared slide was stained by HE staining, enclosed, and observed at 200 and 400-fold magnifications by using the optical microscope function of All-in-One Fluorescence Microscope (BZ-X800, Keyence Corporation). Observation and assessment were performed by observing the whole section. Two to four representative tissue images were randomly taken up, and alteration in the tissue structure, such as inflammation and necrosis, was observed and assessed (Scale bar=200 μm).

[5] = test system: PC12 cells differentiated by NGF; assay: Neurite retraction in NGF-differentiated PC12 cells caused by anticancer agents; type: cell-based, rat; conditions: oxaliplatin 20 μM, 24 hours, FIG. 8
Experimental: Rat adrenal gland pheochromocytoma-derived PC12 cells are known to be differentiated into neuron-like cells having neurites by nerve growth factor (NGF) and are widely used as a nerve cell model. To assess the neurite-protective action of PC-SOD, the effect of PC-SOD in neurite disorder caused by various anticancer agents was analyzed by using PC12 cells differentiated by NGF.
PC12 cells were seeded on a 24-well plate coated with collagen at 5 000 cells/well. […] The images of cells were captured by using a microscope (BZ-X800, Keyence Corporation), and the neurite lengths were measured by using an image analysis software ImageJ (NIH).
(§1) PC12 cells were seeded on a 24-well plate coated with collagen at 5 000 cells/well. […] After neurite elongation, cells were cultured by using differentiation media each containing carboplatin (with a final concentration of 50 μM) alone or carboplatin and PC-SOD (with final concentrations of 10, 20, 50, and 100 μg/mL) for 24 hours. The images of cells were captured by using a microscope (BZ-X800, Keyence Corporation), and the neurite lengths were measured by using an image analysis software ImageJ (NIH).
as §1, with “containing paclitaxel (abbreviated as PTX in the figure of results) alone” for “containing carboplatin”, “of 0.1” for “of 50”, “μM)” for “μM) alone”, “or paclitaxel” for “or carboplatin”, “10,” for “10, 20,”

[6] = anticancer agent alone, 24 hours, FIG. 12-1
[7] = anticancer agent alone, 16 hours, FIG. 13-1

Row | Molecule | active oxygen production in mitochondria of RAW cells (RAW cells [1]) | number of viable RAW cells (RAW cells [3]; [6]) | active oxygen production in mitochondria of RAW cells (RAW cells [1]; [7]) | other results
1 | N.N.[Cl][Pt][Cl] [cisplatin] | induced active oxygen production dependently on the concentration of the anticancer agent |  |  | 
2 | O=C1[O][Pt]2([NH][C@@H]3CCCC[C@H]3[NH]2)[O]C1=O [oxaliplatin] |  | decreased the number of viable cells dependently on the concentration of the anticancer agent | induced active oxygen production dependently on the concentration of the anticancer agent | proliferation of large intestine cancer cells [2]: Suppression of proliferation of large intestine cancer cells caused by OXA was confirmed
3 | mangafodipir [reference compound] |  |  |  | necrosis of liver cells caused by OXA [4]: the suppressive effect on necrosis of liver cells caused by OXA was not observed; neurite retraction caused by oxaliplatin ([5]; test substance 5 μg/mL): a weak suppressing tendency was observed; neurite retraction caused by oxaliplatin ([5]; test substance at concentrations higher than 5 μg/mL (up to 50 μg/mL)): no higher retraction suppressing effect was observed
4 | N.N.O=C([O-])C1(C(=O)[O-])CCC1.[Pt+2] [carboplatin] |  | decreased the number of viable cells dependently on the concentration of the anticancer agent | induced active oxygen production dependently on the concentration of the anticancer agent | 
5 | Nc1ccn([C@@H]2O[C@H](CO)[C@@H](O)C2(F)F)c(=O)n1 [gemcitabine] | induced active oxygen production dependently on the concentration of the anticancer agent |  |  | number of viable RAW cells (RAW cells [3]): decreased the number of viable cells dependently on the concentration of the anticancer agent
